pIC50: −log10 of the molar value.
What was measured:
[1] = target: T1, GTP-loaded KRAS4b (amino acids 1-169) G12C/C118S protein (Homo sapiens, UniProt P01116, C118S/G12C); assay: Covalent cysteine 12 modification by MALDI-TOF MS, GTP-loaded KRAS G12C; format: binding; settings: 15 minutes reaction time point
T1 construct: KRAS4b (amino acids 1-169) G12C/C118S protein; made in house
Method in brief: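 Covalent adduct formation measured by linear-mode MALDI-TOF MS as modified peak height over summed peak heights, 15 min time point reported. Reactions: KRAS4b 1-169 G12C/C118S (1 μM, loaded with GppNHp, GTP or GDP) plus compound at 1:2.5 ratio, pH 7.3 HEPES/NaCl/MgCl2, room temperature.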

[2] = system: pERK in NCI-H358 cells; assay: Cell-based pERK HTRF assay (pERK inhibition in H358 cells); settings: Homo sapiens, NCI-H358, 0.5 h, 30 min incubation
Method in brief: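 NCI-H358 cells were seeded at 4×10^4 cells/well in RPMI/10% FBS, then treated next day for 30 min at 0.25% DMSO (9-point, 3-fold series from 75 μM). Lysates were read by HTRF (d2/Eu cryptate antibody pair, 615 nm emission) after 4–24 h at room temperature to give pERK IC50.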

Row | GTP-KRAS G12C percent of modification [1] | pIC50 [2] | Structure (SMILES)
1 | A (percent of modification ≥70%) | > 7.00 | C=CC(=O)N1CC[C@@H](N(C)c2nc(OC[C@@]34CCCN3C[C@H](F)C4)nc3c(F)c(-c4nc(N)cc(C)c4C(F)(F)F)c(Cl)cc23)[C@H]1C [Compound 78, 1-[(2R,3R)-3-[[7-[6-amino-4-methyl-3-(trifluoromethyl)-2-pyridyl]-6-chloro-8-fluoro-2-[[(2R,8S)-2-fluoro-1,2,3,5,6,7-hexahydropyrrolizin-8-yl]methoxy]quinazolin-4-yl]-methyl-amino]-2-methyl-pyrrolidin-1-yl]prop-2-en-1-one]
2 | C (10%≤percent of modification <50%) | > 7.00 | C=CC(=O)N1CC[C@@H](N(C)c2nc(OC[C@@H]3C[C@@H](OC)CN3C)nc3c(F)c(-c4ccc(F)c5sc(N)c(C#N)c45)c(Cl)cc23)[C@@H]1C [Compound 79]
3 | C (10%≤percent of modification <50%) | 6.00 to 7.00 | C=CC(=O)N1CC[C@@H](N(C)c2nc(N3CC(N(C)C)C3)nc3c(F)c(-c4ccc(F)c5sc(N)c(C#N)c45)c(C(F)(F)F)cc23)[C@H]1C [Compound 80]
4 | C (10%≤percent of modification <50%) | > 7.00 | C=CC(=O)N1CC[C@@H](N(C)c2nc(OC[C@@H]3C[C@@H](F)CN3C)nc3c(F)c(-c4ccc(F)c5sc(N)c(C#N)c45)c(Cl)cc23)[C@@H]1C [Compound 82]
5 | B (50≤percent of modification <70%) | > 7.00 | C=CC(=O)N1CC[C@@H](N(C)c2nc(OC[C@@H]3CCCN3C)nc3c(F)c(-c4ccc(F)c5sc(N)c(C#N)c45)c(Cl)cc23)[C@@H]1C [Compound 83]
6 | B (50≤percent of modification <70%) | > 7.00 | C=CC(=O)N1CC[C@@H](N(C)c2nc(OC[C@@H]3CCCN3CC)nc3c(F)c(-c4ccc(F)c5sc(N)c(C#N)c45)c(Cl)cc23)[C@@H]1C [Compound 84]
7 | B (50≤percent of modification <70%) | > 7.00 | C=CC(=O)N1CC[C@@H](N(CC)c2nc(OC[C@@]34CCCN3C[C@H](F)C4)nc3c(F)c(-c4ccc(F)c5sc(N)c(C#N)c45)c(C(F)(F)F)cc23)[C@@H]1C [Compound 86]
8 | C (10%≤percent of modification <50%) | > 7.00 | C=CC(=O)N1CC[C@@H](N(C)c2nc(OCC3(CN4CCOCC4)CC3)nc3c(F)c(-c4ccc(F)c5sc(N)c(C#N)c45)c(C(F)(F)F)cc23)[C@H]1C [Compound 87]
9 | B (50≤percent of modification <70%) | > 7.00 | C=CC(=O)N1CC[C@@H](N(C)c2nc(OC[C@@H]3CCCN3CC)nc3c(F)c(-c4ccc(F)c5sc(N)c(C#N)c45)c(C(F)(F)F)cc23)[C@H]1C [Compound 88]
10 | C (10%≤percent of modification <50%) | > 7.00 | C=CC(=O)N1CC[C@@H](N(C)c2nc(OC[C@@]34CCCN3C[C@H](F)C4)nc3c(F)c(-c4ccc(F)c5oc(N)c(C#N)c45)c(C(F)(F)F)cc23)[C@H]1C [Compound 90]
11 | C (10%≤percent of modification <50%) | > 7.00 | C=CC(=O)N1CC[C@@H](N(C)c2nc(OC[C@@]34CCCN3C[C@H](F)C4)nc3c(F)c(-c4nc(N)cc(C)c4C(F)(F)F)c(C(F)(F)F)cc23)[C@@H]1C [Compound 91]
12 | B (50≤percent of modification <70%) | > 7.00 | C=CC(=O)N1CC[C@@H](N(C)c2nc(OC[C@@H]3CC4(CC4)CN3CC)nc3c(F)c(-c4ccc(F)c5sc(N)c(C#N)c45)c(Cl)cc23)[C@@H]1C [Compound 92]
13 | B (50≤percent of modification <70%) | > 7.00 | C=CC(=O)N1CC[C@@H](N(C)c2nc(OC[C@@H]3CC4(CC4)CN3CC)nc3c(F)c(-c4ccc(F)c5sc(N)c(C#N)c45)c(C(F)(F)F)cc23)[C@@H]1C [Compound 95]
14 | A (percent of modification ≥70%) | > 7.00 | C=CC(=O)N1CC[C@@H](N(C)c2nc(OC[C@@H]3CC4(CC4)CN3CC)nc3c(F)c(-c4ccc(F)c5sc(N)c(C#N)c45)c(Cl)cc23)[C@H]1C [Compound 97]
15 | D (percent of modification <10%) | 6.00 to 7.00 | C=CC(=O)N1CC[C@@H](N(C)c2nc(OC[C@@H]3C[C@@H](F)CN3CC)nc3c(F)c(-c4ccc(F)c5sc(N)c(C#N)c45)c(Cl)cc23)[C@H]1C [Compound 98]
16 | A (percent of modification ≥70%) | > 7.00 | C=CC(=O)N1CC[C@@H](N(C)c2nc(OC[C@@H]3C[C@@H](OC)CN3CC)nc3c(F)c(-c4ccc(F)c5sc(N)c(C#N)c45)c(Cl)cc23)[C@H]1C [Compound 99]
17 | C (10%≤percent of modification <50%) | > 7.00 | C=CC(=O)N1CC[C@@H](N(C)c2nc(OC[C@@H]3C[C@@H](OC)CN3CC)nc3c(F)c(-c4ccc(F)c5sc(N)c(C#N)c45)c(Cl)cc23)[C@@H]1C [Compound 100]

From patent US20260232666A1, “COMPOSITIONS AND METHODS FOR INHIBITION OF RAS” (TheRas, Inc., priority 2023, published 2026)
